In ChEMBL document CHEMBL4257449, “New N-(2-phenyl-4-oxo-1,3-thiazolidin-3-yl)-1,2-benzothiazole-3-carboxamides and acetamides as antimicrobial agents” (2017):
Values after ≈ are worked out from the molar mass of the structure shown.

Columns and labels:
Aspergillus fumigatus [1] = assay: Antifungal activity against Aspergillus fumigatus after 72 hrs by serial dilution method; type: functional
Trichoderma viride [2] = assay: Fungicidal activity against Trichoderma viride IAM 5061 incubated for 72 hrs followed by serial sub-cultivation for 72 hrs and measured after 72 hrs by serial dilution method; type: functional
Trichoderma viride [3] = assay: Antifungal activity against Trichoderma viride IAM 5061 after 72 hrs by serial dilution method; type: functional; settings: IAM 5061, 72 h
Aspergillus niger [4] = assay: Fungicidal activity against Aspergillus niger ATCC 6275 incubated for 72 hrs followed by serial sub-cultivation for 72 hrs and measured after 72 hrs by serial dilution method; type: functional
Pseudomonas aeruginosa [5] = assay: Bactericidal activity against Pseudomonas aeruginosa ATCC 27853 incubated for 24 hrs followed by serial sub-cultivation and measured after 24 hrs by microdilution method; type: functional
Enterobacter cloacae [6] = assay: Bactericidal activity against Enterobacter cloacae incubated for 24 hrs followed by serial sub-cultivation and measured after 24 hrs by microdilution method; type: functional
Staphylococcus aureus [7] = assay: Bactericidal activity against Staphylococcus aureus ATCC 6538 incubated for 24 hrs followed by serial sub-cultivation and measured after 24 hrs by microdilution method; type: functional
Pseudomonas aeruginosa [8] = assay: Antibacterial activity against Pseudomonas aeruginosa ATCC 27853 after 24 hrs by microdilution method; type: functional; settings: ATCC 27853, 24 h
Listeria monocytogenes [9] = assay: Antibacterial activity against Listeria monocytogenes NCTC 7973 after 24 hrs by microdilution method; type: functional; settings: NCTC 7973, 24 h
Penicillium ochrochloron [10] = assay: Fungicidal activity against Penicillium ochrochloron ATCC 9112 incubated for 72 hrs followed by serial sub-cultivation for 72 hrs and measured after 72 hrs by serial dilution method; type: functional
Listeria monocytogenes [11] = assay: Bactericidal activity against Listeria monocytogenes NCTC 7973 incubated for 24 hrs followed by serial sub-cultivation and measured after 24 hrs by microdilution method; type: functional
Aspergillus niger [12] = assay: Antifungal activity against Aspergillus niger ATCC 6275 after 72 hrs by serial dilution method; type: functional; settings: ATCC 6275, 72 h
Aspergillus versicolor [13] = assay: Antifungal activity against Aspergillus versicolor ATCC 11730 after 72 hrs by serial dilution method; type: functional; settings: ATCC 11730, 72 h
Salmonella typhimurium [14] = assay: Bactericidal activity against Salmonella typhimurium ATCC 13311 incubated for 24 hrs followed by serial sub-cultivation and measured after 24 hrs by microdilution method; type: functional, Salmonella enterica subsp. enterica serovar Typhimurium
Escherichia coli [15] = assay: Bactericidal activity against Escherichia coli ATCC 35210 incubated for 24 hrs followed by serial sub-cultivation and measured after 24 hrs by microdilution method; type: functional
Bacillus cereus [16] = assay: Bactericidal activity against Bacillus cereus incubated for 24 hrs followed by serial sub-cultivation and measured after 24 hrs by microdilution method; type: functional
Escherichia coli [17] = assay: Antibacterial activity against Escherichia coli ATCC 35210 after 24 hrs by microdilution method; type: functional; settings: ATCC 35210, 24 h
Talaromyces funiculosus [18] = assay: Fungicidal activity against Penicillium funiculosum ATCC 36839 incubated for 72 hrs followed by serial sub-cultivation for 72 hrs and measured after 72 hrs by serial dilution method; type: functional
Staphylococcus aureus [19] = assay: Antibacterial activity against Staphylococcus aureus ATCC 6538 after 24 hrs by microdilution method; type: functional; settings: ATCC 6538, 24 h
Aspergillus ochraceus [20] = assay: Fungicidal activity against Aspergillus ochraceus ATCC 12066 incubated for 72 hrs followed by serial sub-cultivation for 72 hrs and measured after 72 hrs by serial dilution method; type: functional
Salmonella typhimurium [21] = assay: Antibacterial activity against Salmonella typhimurium ATCC 13311 after 24 hrs by microdilution method; type: functional, Salmonella enterica subsp. enterica serovar Typhimurium; settings: Salmonella enterica, ATCC 13311, 24 h
Candida albicans [22] = assay: Fungicidal activity against Candida albicans incubated for 72 hrs followed by serial sub-cultivation for 72 hrs and measured after 72 hrs by serial dilution method; type: functional
Bacillus cereus [23] = assay: Antibacterial activity against Bacillus cereus after 24 hrs by microdilution method; type: functional
Aspergillus fumigatus [24] = assay: Fungicidal activity against Aspergillus fumigatus incubated for 72 hrs followed by serial sub-cultivation for 72 hrs and measured after 72 hrs by serial dilution method; type: functional
Candida albicans [25] = assay: Antifungal activity against Candida albicans after 72 hrs by serial dilution method; type: functional
Micrococcus flavus [26] = assay: Bactericidal activity against Micrococcus flavus ATCC 10240 incubated for 24 hrs followed by serial sub-cultivation and measured after 24 hrs by microdilution method; type: functional
Micrococcus flavus [27] = assay: Antibacterial activity against Micrococcus flavus ATCC 10240 after 24 hrs by microdilution method; type: functional; settings: ATCC 10240, 24 h
Talaromyces funiculosus [28] = assay: Antifungal activity against Penicillium funiculosum ATCC 36839 after 72 hrs by serial dilution method; type: functional; settings: ATCC 36839, 72 h
Penicillium ochrochloron [29] = assay: Antifungal activity against Penicillium ochrochloron ATCC 9112 after 72 hrs by serial dilution method; type: functional; settings: ATCC 9112, 72 h
Aspergillus versicolor [30] = assay: Fungicidal activity against Aspergillus versicolor ATCC 11730 incubated for 72 hrs followed by serial sub-cultivation for 72 hrs and measured after 72 hrs by serial dilution method; type: functional
Enterobacter cloacae [31] = assay: Antibacterial activity against Enterobacter cloacae after 24 hrs by microdilution method; type: functional
Aspergillus ochraceus [32] = assay: Antifungal activity against Aspergillus ochraceus ATCC 12066 after 72 hrs by serial dilution method; type: functional; settings: ATCC 12066, 72 h

Row | MIC (Aspergillus fumigatus [1]) [µM] | MIC (Trichoderma viride [3]) [µM] | MIC (Pseudomonas aeruginosa [8]) [µM] | MIC (Aspergillus niger [12]) [µM] | MIC (Aspergillus versicolor [13]) [µM] | MIC (Candida albicans [25]) [µM] | MIC (Talaromyces funiculosus [28]) [µM] | MIC (Penicillium ochrochloron [29]) [µM] | MIC (Aspergillus ochraceus [32]) [µM] | Structure (SMILES) | MFC99.5 (Trichoderma viride [2]) [×10⁻² umol/ml] | MFC99.5 (Aspergillus niger [4]) [×10⁻² umol/ml] | MBC99.5 (Pseudomonas aeruginosa [5]) [×10⁻² umol/ml] | MBC99.5 (Enterobacter cloacae [6]) [×10⁻² umol/ml] | MBC99.5 (Staphylococcus aureus [7]) [×10⁻² umol/ml] | MFC99.5 (Penicillium ochrochloron [10]) [×10⁻² umol/ml] | MFC99.5 (Talaromyces funiculosus [18]) [×10⁻² umol/ml] | MFC99.5 (Aspergillus ochraceus [20]) [×10⁻² umol/ml] | MFC99.5 (Candida albicans [22]) [×10⁻² umol/ml] | MFC99.5 (Aspergillus fumigatus [24]) [×10⁻² umol/ml] | MFC99.5 (Aspergillus versicolor [30]) [×10⁻² umol/ml] | further results
1 | 482 (≈ 160 µg/mL) | 61 (≈ 20.2 µg/mL) | 116 (≈ 38.4 µg/mL) | 121 (≈ 40.1 µg/mL) | 91 (≈ 30.2 µg/mL) | 121 (≈ 40.1 µg/mL) | 91 (≈ 30.2 µg/mL) | 181 (≈ 60 µg/mL) | 121 (≈ 40.1 µg/mL) | O=C(Cc1nsc2ccccc12)N/N=C/c1c(F)cccc1F | 12.1 | 24.1 | 23.2 | 23.2 | 23.2 | 24.1 | 12.1 | 24.1 | 24.1 | 96.4 | 12.1 | MIC (Listeria monocytogenes [9]): 116 µM (≈ 38.4 µg/mL); MBC99.5 (Listeria monocytogenes [11]): 23.2 ×10⁻² umol/ml; MBC99.5 (Salmonella typhimurium [14]): 23.2 ×10⁻² umol/ml; MBC99.5 (Escherichia coli [15]): 23.2 ×10⁻² umol/ml; MBC99.5 (Bacillus cereus [16]): 23.2 ×10⁻² umol/ml; MIC (Escherichia coli [17]): 116 µM (≈ 38.4 µg/mL); MIC (Staphylococcus aureus [19]): 29 µM (≈ 9.61 µg/mL); MIC (Salmonella typhimurium [21]): 116 µM (≈ 38.4 µg/mL); MIC (Bacillus cereus [23]): 116 µM (≈ 38.4 µg/mL); MBC99.5 (Micrococcus flavus [26]): 23.2 ×10⁻² umol/ml; MIC (Micrococcus flavus [27]): 116 µM (≈ 38.4 µg/mL); MIC (Enterobacter cloacae [31]): 116 µM (≈ 38.4 µg/mL)
2 | 240 (≈ 80.1 µg/mL) | 240 (≈ 80.1 µg/mL) | 240 (≈ 80.1 µg/mL) | 60 (≈ 20 µg/mL) | 60 (≈ 20 µg/mL) | 240 (≈ 80.1 µg/mL) | 30 (≈ 10 µg/mL) | 60 (≈ 20 µg/mL) | 60 (≈ 20 µg/mL) | O=C(N/N=C/c1c(F)cccc1Cl)c1nsc2ccccc12 | 48 | 12 | 48 | 12 | 12 | 12 | 6 | 12 | 30 | 30 | 12 | MIC (Listeria monocytogenes [9]): 240 µM (≈ 80.1 µg/mL); MBC99.5 (Listeria monocytogenes [11]): 48 ×10⁻² umol/ml; MBC99.5 (Salmonella typhimurium [14]): 12 ×10⁻² umol/ml; MBC99.5 (Escherichia coli [15]): 24 ×10⁻² umol/ml; MBC99.5 (Bacillus cereus [16]): 24 ×10⁻² umol/ml; MIC (Escherichia coli [17]): 120 µM (≈ 40.1 µg/mL); MIC (Staphylococcus aureus [19]): 60 µM (≈ 20 µg/mL); MIC (Salmonella typhimurium [21]): 60 µM (≈ 20 µg/mL); MIC (Bacillus cereus [23]): 120 µM (≈ 40.1 µg/mL); MBC99.5 (Micrococcus flavus [26]): 24 ×10⁻² umol/ml; MIC (Micrococcus flavus [27]): 120 µM (≈ 40.1 µg/mL); MIC (Enterobacter cloacae [31]): 60 µM (≈ 20 µg/mL)
3 | 408 (≈ 160 µg/mL) | 51 (≈ 20 µg/mL) | 204 (≈ 79.9 µg/mL) | 204 (≈ 79.9 µg/mL) | 204 (≈ 79.9 µg/mL) | 408 (≈ 160 µg/mL) | 102 (≈ 39.9 µg/mL) | 102 (≈ 39.9 µg/mL) | 51 (≈ 20 µg/mL) | O=C(NN1C(=O)CSC1c1c(F)cccc1F)c1nsc2ccccc12 (configuration not stated) | 10.2 | 40.8 | 40.8 | 20.4 | 20.4 | 51 | 20.4 | 10.2 | 51 | 51 | 40.8 | MIC (Listeria monocytogenes [9]): 204 µM (≈ 79.9 µg/mL); MBC99.5 (Listeria monocytogenes [11]): 40.8 ×10⁻² umol/ml; MBC99.5 (Salmonella typhimurium [14]): 40.8 ×10⁻² umol/ml; MBC99.5 (Escherichia coli [15]): 20.4 ×10⁻² umol/ml; MBC99.5 (Bacillus cereus [16]): 20.4 ×10⁻² umol/ml; MIC (Escherichia coli [17]): 102 µM (≈ 39.9 µg/mL); MIC (Staphylococcus aureus [19]): 102 µM (≈ 39.9 µg/mL); MIC (Salmonella typhimurium [21]): 204 µM (≈ 79.9 µg/mL); MIC (Bacillus cereus [23]): 102 µM (≈ 39.9 µg/mL); MBC99.5 (Micrococcus flavus [26]): 20.4 ×10⁻² umol/ml; MIC (Micrococcus flavus [27]): 102 µM (≈ 39.9 µg/mL); MIC (Enterobacter cloacae [31]): 102 µM (≈ 39.9 µg/mL)

Row | Structure (SMILES) | MIC (Aspergillus fumigatus [1]) [µM] | MIC (Trichoderma viride [3]) [µM] | MIC (Pseudomonas aeruginosa [8]) [µM] | MIC (Aspergillus niger [12]) [µM] | MIC (Aspergillus versicolor [13]) [µM] | MIC (Candida albicans [25]) [µM] | MIC (Talaromyces funiculosus [28]) [µM] | MIC (Penicillium ochrochloron [29]) [µM] | MIC (Aspergillus ochraceus [32]) [µM] | MFC99.5 (Trichoderma viride [2]) [×10⁻² umol/ml] | MFC99.5 (Aspergillus niger [4]) [×10⁻² umol/ml] | MBC99.5 (Pseudomonas aeruginosa [5]) [×10⁻² umol/ml] | MBC99.5 (Enterobacter cloacae [6]) [×10⁻² umol/ml] | MBC99.5 (Staphylococcus aureus [7]) [×10⁻² umol/ml] | MFC99.5 (Penicillium ochrochloron [10]) [×10⁻² umol/ml] | MFC99.5 (Talaromyces funiculosus [18]) [×10⁻² umol/ml] | MFC99.5 (Aspergillus ochraceus [20]) [×10⁻² umol/ml] | MFC99.5 (Candida albicans [22]) [×10⁻² umol/ml] | MFC99.5 (Aspergillus fumigatus [24]) [×10⁻² umol/ml] | MFC99.5 (Aspergillus versicolor [30]) [×10⁻² umol/ml] | further results
4 | c1ccc(-c2ccc(C(c3ccccc3)n3ccnc3)cc2)cc1 (configuration not stated) [BIFONAZOLE] | 480 (≈ 149 µg/mL) | 640 (≈ 199 µg/mL) |  | 480 (≈ 149 µg/mL) | 320 (≈ 99.3 µg/mL) | 320 (≈ 99.3 µg/mL) | 640 (≈ 199 µg/mL) | 640 (≈ 199 µg/mL) | 480 (≈ 149 µg/mL) | 80 | 64 |  |  |  | 80.5 | 80 | 80 | 64 | 64 | 64 | 
